Consider 19 molecules from ChEMBL document CHEMBL1129864, “A new series of selective COX-2 inhibitors: 5,6-diarylthiazolo[3,2-b][1,2,4]triazoles” (Bioorg Med Chem Lett, 1997).

For orientation: IC50 means the midpoint of a concentration-inhibition curve. High values mean weaker potency, low ones greater potency. The Cmax is the highest concentration seen after dosing. As a reminder, the bioavailability is dose-corrected exposure relative to a reference, in per cent. The low end stands for little systemic uptake, the high end for much systemic uptake.

Series [1] can be described thus: Percentage recovery after 3h incubation with rat hapatocytes was determined. The format is ADME, organism-based. To be noted: hepatocytes, read-out: Recovery.
Series [2] deals with T1, Prostaglandin G/H synthase 2 (Homo sapiens, UniProt P35354).
T1 sequence (P35354 whole entry): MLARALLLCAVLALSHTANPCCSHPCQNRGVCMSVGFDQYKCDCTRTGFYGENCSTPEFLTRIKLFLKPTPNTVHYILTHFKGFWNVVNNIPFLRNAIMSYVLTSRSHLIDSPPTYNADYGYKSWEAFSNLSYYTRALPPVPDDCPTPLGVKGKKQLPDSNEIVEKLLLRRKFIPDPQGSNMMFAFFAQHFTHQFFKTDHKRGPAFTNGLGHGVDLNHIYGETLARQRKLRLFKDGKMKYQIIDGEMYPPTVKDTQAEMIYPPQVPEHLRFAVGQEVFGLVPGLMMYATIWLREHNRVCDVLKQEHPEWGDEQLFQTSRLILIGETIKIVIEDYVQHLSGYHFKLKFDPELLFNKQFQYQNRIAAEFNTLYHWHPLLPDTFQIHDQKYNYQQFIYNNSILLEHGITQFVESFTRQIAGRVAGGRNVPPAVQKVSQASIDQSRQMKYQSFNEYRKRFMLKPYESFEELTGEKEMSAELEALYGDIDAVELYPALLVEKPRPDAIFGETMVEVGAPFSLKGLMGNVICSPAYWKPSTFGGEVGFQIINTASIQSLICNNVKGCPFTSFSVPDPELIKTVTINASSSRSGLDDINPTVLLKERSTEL
The format is cell-based, CHO.
Description: Tested in vitro for the ability to inhibit Prostaglandin G/H synthase 2 in chinese hamster ovary (CHO) cells

The target of series [3] is Prostaglandin G/H synthase 1 (Homo sapiens, UniProt P23219).
Sequence of Prostaglandin G/H synthase 1 (P23219 whole entry): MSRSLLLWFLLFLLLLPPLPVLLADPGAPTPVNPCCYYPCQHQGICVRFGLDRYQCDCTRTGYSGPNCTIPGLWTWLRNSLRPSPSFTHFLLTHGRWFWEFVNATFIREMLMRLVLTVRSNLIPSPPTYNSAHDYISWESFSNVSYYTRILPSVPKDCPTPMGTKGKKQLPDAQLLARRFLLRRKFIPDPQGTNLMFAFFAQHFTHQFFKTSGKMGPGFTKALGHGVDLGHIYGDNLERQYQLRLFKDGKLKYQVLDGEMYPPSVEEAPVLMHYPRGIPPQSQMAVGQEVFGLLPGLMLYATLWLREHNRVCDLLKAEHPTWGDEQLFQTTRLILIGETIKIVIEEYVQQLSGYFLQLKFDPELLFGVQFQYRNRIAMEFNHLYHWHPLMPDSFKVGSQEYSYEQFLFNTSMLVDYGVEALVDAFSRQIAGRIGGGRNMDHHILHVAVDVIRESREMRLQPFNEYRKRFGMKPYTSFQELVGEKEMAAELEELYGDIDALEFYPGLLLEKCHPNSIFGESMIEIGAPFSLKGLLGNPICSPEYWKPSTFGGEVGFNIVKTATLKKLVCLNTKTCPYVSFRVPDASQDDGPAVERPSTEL
Description: Tested in vitro for the ability to inhibit Prostaglandin G/H synthase 1 in chinese hamster ovary (CHO) cells
The target of series [4] is T1, Prostaglandin G/H synthase 2. The format is organism-based, Blood.
Description: In vivo ability to inhibit Prostaglandin G/H synthase 2 in human whole blood assay
Series [5] is filed under the species Rattus norvegicus. The series can be described thus: Intrinsic activity in the rat pyresis assay. The format is functional.
A short description of series [6]: Maximum concentration at 4 hr after administration of 5 mg/kg dose peroral in rat. The arrangement: dose 5 mg/kg, route oral. The format is ADME, organism-based. To be noted: in vivo, po.
For series [7], the system named is Rattus norvegicus. As to the kind of experiment: Intrinsic activity in the rat paw edema model. The format is functional.
Series [8] can be described thus: Bioavailability at 4 hr after administration of 5 mg/kg dose peroral in rat. The format is ADME, organism-based. Conditions: in vivo, po.
The species entered for series [9] is Rattus norvegicus. The series can be described thus: Intrinsic activity in the rat hyperalgesia assay. The class given is functional. To be noted: read-out: ID50 (the source's name).
The species entered for series [10] is Rattus norvegicus. As to the kind of experiment: Plasma clearance in rat. The format is ADME, organism-based. Conditions: in vivo.

As to `CS(=O)(=O)c1ccc(-c2c(-c3ccccc3)nc3sccn23)cc1`, the remaining at 3 h in series [1] is under 10%.
For `CS(=O)(=O)c1ccc(-c2sc3nc(C(F)(F)F)nn3c2-c2cccc(F)c2)cc1`, the half-maximal inhibitory concentration (IC50) in series [2] amounted to 13 nM; in series [3] it was 8500 nM.
In the case of `CS(=O)(=O)c1ccc(-c2sc3ncnn3c2-c2cc(F)cc(F)c2)cc1`, the IC50 in series [2] was 80 nM; in series [3], over 50000 nM.
In the same order, the values of `CCc1nc2sc(-c3ccc(S(C)(=O)=O)cc3)c(-c3ccccc3)n2n1` are 15 nM and 2400 nM.
`CS(=O)(=O)c1ccc(-c2sc3nc(C(F)(F)F)nn3c2-c2ccccc2)cc1` gave an IC50 in [3] of 1100 nM.
Take `CS(=O)(=O)c1ccc(-c2sc3ncnn3c2-c2ccc(F)cc2)cc1`: the figures for the IC50 in series [2] and in [3] were 36 nM and 15000 nM, respectively.
In the same order, the values of `CS(=O)(=O)c1ccc(-c2c(-c3ccccc3)sc3nc(C(F)(F)F)nn23)cc1` are over 50000 nM and 9000 nM.
On to `CS(=O)(=O)c1ccc(-c2c(-c3ccccc3)sc3nncn23)cc1`, for which the IC50 in series [2] was 230 nM; in series [3], 2100 nM.
For `C=Cc1nc2sc(-c3ccc(S(C)(=O)=O)cc3)c(-c3ccccc3)n2n1`, the IC50 stood at 6 nM in series [2], 9600 nM in [3] and 4100 nM in series [4].
With `CS(=O)(=O)c1ccc(-c2sc3ncnn3c2-c2cccc(F)c2)cc1`, the IC50 in [2] is 22 nM; in series [3], over 50000 nM; in series [4], 4200 nM.
Regarding `CS(=O)(=O)c1ccc(-c2sc3ncnn3c2-c2ccccc2)cc1`, the remaining at 3 h in series [1] was over 95%. The ED50 is 1 mg/kg in series [5], 1.7 mg/kg in series [7] and 1 mg/kg in [9]. The same molecule came in with a Cmax in series [6] of 7.2 µM. Further, the figures for the half-inhibitory concentration (IC50) in series [2], in series [3] and in series [4] were 10 nM, 43000 nM and 2300 nM, respectively. Besides, the bioavailability in series [8] is about 100%. Moreover, the Clearance in series [10] was 13 mL/min/kg.
Turning to `CS(=O)(=O)c1ccc(-c2c(-c3ccccc3)sc3ncnn23)cc1`, the IC50 is 32 nM in series [2], over 50000 nM in [3] and over 30000 nM in series [4].
As to `CS(=O)(=O)c1ccc(-c2sc3nncn3c2-c2ccccc2)cc1`, the IC50 was 450 nM in series [2] and over 50000 nM in [3].
In the same order, the values of `COc1cccc(-c2c(-c3ccc(S(C)(=O)=O)cc3)sc3ncnn23)c1` are 260 nM and over 50000 nM.
Consider `Cc1nc2sc(-c3ccc(S(C)(=O)=O)cc3)c(-c3ccccc3)n2n1`, for which the IC50 is 20 nM in series [2], over 50000 nM in [3] and 10000 nM in series [4].
`Cc1nc2sc(-c3ccc(S(C)(=O)=O)cc3)c(-c3cccc(F)c3)n2n1`: the figures for the half-inhibitory concentration (IC50) in series [2], in series [3] and in series [4] were 150 nM, over 50000 nM and 14000 nM, respectively.
With `CC(C)c1nc2sc(-c3ccc(S(C)(=O)=O)cc3)c(-c3ccccc3)n2n1`, the results for the IC50 in series [2] and in series [3] were 11 nM and 600 nM, respectively.
On to `CS(=O)(=O)c1ccc(-c2sc3ncnn3c2-c2ccc(F)c(F)c2)cc1`, for which the concentration for half-maximal inhibition (IC50) was 48 nM in series [2], 30000 nM in series [3] and over 30000 nM in series [4].
On to `Cc1cccc(-c2c(-c3ccc(S(C)(=O)=O)cc3)sc3nc(C(F)(F)F)nn23)c1`, for which the IC50 came out at 3 nM in series [2] and 610 nM in series [3].
